Results taken from ChEMBL document CHEMBL1201862, “PubChem BioAssay data set” (2004).
One block for each compound: values may come before it. Calls of active or inactive are those of the source.

Key:
[1] = biological target: T1, Ubiquitin-conjugating enzyme E2 N (Homo sapiens, UniProt P61088); assay type: functional;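 further: Dose-response confirmation in a TR-FRET assay detecting UBC13-driven polyubiquitin chain formation, inhibition measured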
T1 sequence (P61088 whole entry): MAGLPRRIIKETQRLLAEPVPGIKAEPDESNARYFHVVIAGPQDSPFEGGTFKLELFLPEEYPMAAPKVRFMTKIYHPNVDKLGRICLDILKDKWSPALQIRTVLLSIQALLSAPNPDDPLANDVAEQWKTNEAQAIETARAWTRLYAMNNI

Prothrombin = Prothrombin (Bos taurus, UniProt P00735); assay: thrombin inhibition, dose response, biochemical, fluorescence polarization, uHTS hits (AID 602369); assay type: functional
[2] = biological target: 72 kDa type IV collagenase (Homo sapiens, UniProt P08253); assay: Dose Response validation of uHTS RPN11 inhibitor hits using a MMP-2 Fluorescence assay.; assay type: functional
[3] = biological target: 26S proteasome non-ATPase regulatory subunit 14 (Homo sapiens, UniProt O00487); assay: inhibition of proteasome subunit RPN11 – biochemical, fluorescence polarization, uHTS hits, confirmation (AID 602368); assay type: functional
[4] = biological target: Benomyl/methotrexate resistance protein (Candida albicans, UniProt P28873); assay: CaMdr1 efflux pump inhibitor potency, dose response, singleplex, Cherry Pick1 hits (AID 588608); assay type: functional
Sequence of Benomyl/methotrexate resistance protein (P28873 whole entry): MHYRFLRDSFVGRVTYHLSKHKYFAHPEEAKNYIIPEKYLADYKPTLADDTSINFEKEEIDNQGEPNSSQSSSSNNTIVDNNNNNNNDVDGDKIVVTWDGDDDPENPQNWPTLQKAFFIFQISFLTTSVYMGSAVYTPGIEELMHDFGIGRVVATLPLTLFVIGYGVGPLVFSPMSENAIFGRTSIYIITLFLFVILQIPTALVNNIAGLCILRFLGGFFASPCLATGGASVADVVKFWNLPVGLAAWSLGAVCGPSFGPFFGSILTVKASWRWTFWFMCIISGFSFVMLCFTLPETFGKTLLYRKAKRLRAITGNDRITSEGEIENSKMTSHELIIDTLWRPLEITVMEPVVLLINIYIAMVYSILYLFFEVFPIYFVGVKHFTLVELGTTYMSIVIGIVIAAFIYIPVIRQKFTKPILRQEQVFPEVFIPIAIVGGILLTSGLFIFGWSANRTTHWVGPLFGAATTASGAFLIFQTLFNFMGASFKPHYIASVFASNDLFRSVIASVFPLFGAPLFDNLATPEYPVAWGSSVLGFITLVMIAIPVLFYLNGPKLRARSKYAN

[5] = biological target: Multidrug resistance protein CDR1 (Candida albicans, UniProt P43071); assay: CaCDR1 efflux pump inhibitors in yeast, dose response, S. cerevisiae AD1-8u, singleplex, Cherry Pick1 hits (AID 588606); assay type: functional
Sequence of Multidrug resistance protein CDR1 (P43071 whole entry, looked up): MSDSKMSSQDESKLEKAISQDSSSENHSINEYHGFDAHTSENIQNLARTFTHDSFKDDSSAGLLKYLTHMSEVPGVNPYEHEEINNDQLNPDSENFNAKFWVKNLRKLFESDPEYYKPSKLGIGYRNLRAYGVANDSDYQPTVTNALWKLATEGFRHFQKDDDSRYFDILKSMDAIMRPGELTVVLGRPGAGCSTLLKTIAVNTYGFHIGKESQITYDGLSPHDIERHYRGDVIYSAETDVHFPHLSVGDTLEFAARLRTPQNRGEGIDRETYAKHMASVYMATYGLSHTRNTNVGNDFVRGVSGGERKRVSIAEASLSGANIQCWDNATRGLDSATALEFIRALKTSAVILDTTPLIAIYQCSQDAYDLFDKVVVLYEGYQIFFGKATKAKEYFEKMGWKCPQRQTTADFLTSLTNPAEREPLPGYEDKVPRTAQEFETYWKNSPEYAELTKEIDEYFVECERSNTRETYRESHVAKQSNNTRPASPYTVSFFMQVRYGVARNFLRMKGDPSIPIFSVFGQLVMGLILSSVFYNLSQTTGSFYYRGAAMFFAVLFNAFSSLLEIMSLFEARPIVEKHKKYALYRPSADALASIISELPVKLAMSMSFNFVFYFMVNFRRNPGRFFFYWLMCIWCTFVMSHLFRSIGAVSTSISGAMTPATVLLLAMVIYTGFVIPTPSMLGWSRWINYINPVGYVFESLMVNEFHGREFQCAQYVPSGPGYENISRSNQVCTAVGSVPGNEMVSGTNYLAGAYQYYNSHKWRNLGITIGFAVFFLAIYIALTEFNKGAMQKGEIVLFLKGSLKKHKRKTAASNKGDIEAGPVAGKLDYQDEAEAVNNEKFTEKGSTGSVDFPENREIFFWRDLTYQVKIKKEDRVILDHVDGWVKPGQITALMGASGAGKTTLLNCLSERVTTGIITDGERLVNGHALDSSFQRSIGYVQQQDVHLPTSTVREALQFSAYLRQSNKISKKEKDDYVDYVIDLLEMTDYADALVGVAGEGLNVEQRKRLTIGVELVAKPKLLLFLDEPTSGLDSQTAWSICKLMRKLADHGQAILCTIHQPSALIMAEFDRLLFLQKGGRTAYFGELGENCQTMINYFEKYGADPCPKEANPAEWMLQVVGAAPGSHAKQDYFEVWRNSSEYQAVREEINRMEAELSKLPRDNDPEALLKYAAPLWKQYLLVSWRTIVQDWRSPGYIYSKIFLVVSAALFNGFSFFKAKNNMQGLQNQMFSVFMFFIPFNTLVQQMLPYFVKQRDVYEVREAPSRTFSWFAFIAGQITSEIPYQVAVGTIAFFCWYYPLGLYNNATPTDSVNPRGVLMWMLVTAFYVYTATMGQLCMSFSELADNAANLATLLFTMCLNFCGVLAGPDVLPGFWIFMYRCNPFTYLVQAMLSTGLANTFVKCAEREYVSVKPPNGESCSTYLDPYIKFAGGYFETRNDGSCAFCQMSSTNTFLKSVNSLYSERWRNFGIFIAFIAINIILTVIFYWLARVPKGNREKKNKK

[6] = biological target: T2, High affinity choline transporter 1 (Homo sapiens, UniProt Q9GZV3); assay: CHT activators, dose response, cell-based, 10-point CRC, membrane potential dye (AID 602376); assay type: functional
T2 sequence (Q9GZV3 whole entry): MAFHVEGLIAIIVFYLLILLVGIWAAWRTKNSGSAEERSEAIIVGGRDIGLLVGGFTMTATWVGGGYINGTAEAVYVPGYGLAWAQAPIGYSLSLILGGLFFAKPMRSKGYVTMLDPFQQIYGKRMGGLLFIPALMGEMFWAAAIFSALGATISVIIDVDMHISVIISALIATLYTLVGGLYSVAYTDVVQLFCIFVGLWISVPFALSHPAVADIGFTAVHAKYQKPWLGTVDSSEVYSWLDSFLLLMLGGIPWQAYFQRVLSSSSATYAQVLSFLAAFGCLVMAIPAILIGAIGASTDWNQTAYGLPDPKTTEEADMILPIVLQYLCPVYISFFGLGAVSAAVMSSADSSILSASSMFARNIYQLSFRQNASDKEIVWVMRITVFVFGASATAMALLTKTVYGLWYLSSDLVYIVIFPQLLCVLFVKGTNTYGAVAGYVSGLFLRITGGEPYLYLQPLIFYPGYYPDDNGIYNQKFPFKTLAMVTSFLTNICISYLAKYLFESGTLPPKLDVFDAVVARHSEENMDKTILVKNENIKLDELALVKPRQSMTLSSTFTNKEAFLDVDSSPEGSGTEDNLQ

[7] = cytotoxicity toward NIH3T3 fibroblasts, dose response, counter-screen, cell-based, ATP luminescence, mouse fibroblasts (AID 2010); assay type: functional;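 further: cells exposed to compound for about 90 hours before reading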
INS1 [8] = assay: beta cell apoptosis inhibitors, cytokine rescue, dose response, luminescence, retest (AID 449756); assay type: functional, cell-based; conditions: Rattus norvegicus;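 further: cell death triggered by IL-1 beta plus TNF-alpha plus IFN-gamma mixture; protective hits raise ATP signal compared with cytokine alone wells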
[9] = cytotoxicity in HEK-293T cells, dose response, cytotoxicity control for BCR NF-kB inhibitor project, luminescence, B-cell screen hits (AID 489021); assay type: functional, cell-based;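 further: HEK-293T cells carrying an NF-kB luciferase reporter; cells exposed to compound for about 14 hours before viability readout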
[10] = inhibitors of intracellular T. cruzi replication, confirmation, NIH3T3 host cells, beta-gal luminescence (AID 2044); assay type: functional, cell-based;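 further: intracellular parasites grown in NIH/3T3 mouse fibroblasts as host cells; luminescent beta-galactosidase reporter signal from transgenic T. cruzi replicating inside host cells; inhibitors lower the luminescence signal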
Vero = assay: West Nile virus antiviral activity, cell-based, CPE readout (AID 1621); assay type: functional; conditions: Chlorocebus sabaeus
[11] = biological target: T3, Protein disulfide-isomerase (Homo sapiens, UniProt P07237); assay: PDI inhibitors, insulin turbidity readout, confirmation, biochemical, dry powder samples, set 2 (AID 652146)
T3 sequence (P07237 whole entry): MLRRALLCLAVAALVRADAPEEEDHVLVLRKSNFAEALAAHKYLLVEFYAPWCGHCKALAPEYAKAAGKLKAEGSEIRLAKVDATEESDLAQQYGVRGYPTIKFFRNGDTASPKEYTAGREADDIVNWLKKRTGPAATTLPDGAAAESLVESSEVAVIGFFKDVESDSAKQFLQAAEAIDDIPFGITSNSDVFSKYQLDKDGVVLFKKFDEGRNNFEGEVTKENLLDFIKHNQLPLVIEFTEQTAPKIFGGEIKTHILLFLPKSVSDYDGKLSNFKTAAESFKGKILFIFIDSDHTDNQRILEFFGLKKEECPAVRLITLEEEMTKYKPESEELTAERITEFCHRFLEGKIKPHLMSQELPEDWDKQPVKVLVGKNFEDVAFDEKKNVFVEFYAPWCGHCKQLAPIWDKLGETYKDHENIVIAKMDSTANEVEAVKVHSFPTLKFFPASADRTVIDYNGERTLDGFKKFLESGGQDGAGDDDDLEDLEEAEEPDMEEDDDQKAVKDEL

[12] = biological target: T3, Protein disulfide-isomerase; assay: PDI inhibitors, insulin aggregation turbidity, dose response, biochemical, absorbance, cherry-picked samples (AID 602350); assay type: functional
[13] = HeLa cell cytotoxicity, dose response, cytotoxicity control, ATP luminescence, dry powder (AID 652117); assay type: functional, cell-based
[14] = inhibitors of cytokine-induced nitrite release, dose response, cell-based, Griess absorbance, INS-1E, dry powder, set 3 (AID 488870); assay type: functional; conditions: Rattus norvegicus
INS1 [15] = assay: inhibitors of cytokine-induced nitrite release, dose response, cell-based, Griess absorbance, INS-1E, dry powder, set 2 (AID 488868); assay type: functional; conditions: Rattus norvegicus
INS1 [16] = assay: protection of INS-1E cells from cytokine death, dose response, ATP luminescence, dry powder (AID 488844); assay type: functional, cell-based; conditions: Rattus norvegicus
[17] = biological target: T4, Receptor-type tyrosine-protein kinase FLT3 (Homo sapiens, UniProt P36888); assay type: functional;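 further: FLT3 was tested as one member of a kinome-wide kinase panel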
T4 sequence (P36888 whole entry): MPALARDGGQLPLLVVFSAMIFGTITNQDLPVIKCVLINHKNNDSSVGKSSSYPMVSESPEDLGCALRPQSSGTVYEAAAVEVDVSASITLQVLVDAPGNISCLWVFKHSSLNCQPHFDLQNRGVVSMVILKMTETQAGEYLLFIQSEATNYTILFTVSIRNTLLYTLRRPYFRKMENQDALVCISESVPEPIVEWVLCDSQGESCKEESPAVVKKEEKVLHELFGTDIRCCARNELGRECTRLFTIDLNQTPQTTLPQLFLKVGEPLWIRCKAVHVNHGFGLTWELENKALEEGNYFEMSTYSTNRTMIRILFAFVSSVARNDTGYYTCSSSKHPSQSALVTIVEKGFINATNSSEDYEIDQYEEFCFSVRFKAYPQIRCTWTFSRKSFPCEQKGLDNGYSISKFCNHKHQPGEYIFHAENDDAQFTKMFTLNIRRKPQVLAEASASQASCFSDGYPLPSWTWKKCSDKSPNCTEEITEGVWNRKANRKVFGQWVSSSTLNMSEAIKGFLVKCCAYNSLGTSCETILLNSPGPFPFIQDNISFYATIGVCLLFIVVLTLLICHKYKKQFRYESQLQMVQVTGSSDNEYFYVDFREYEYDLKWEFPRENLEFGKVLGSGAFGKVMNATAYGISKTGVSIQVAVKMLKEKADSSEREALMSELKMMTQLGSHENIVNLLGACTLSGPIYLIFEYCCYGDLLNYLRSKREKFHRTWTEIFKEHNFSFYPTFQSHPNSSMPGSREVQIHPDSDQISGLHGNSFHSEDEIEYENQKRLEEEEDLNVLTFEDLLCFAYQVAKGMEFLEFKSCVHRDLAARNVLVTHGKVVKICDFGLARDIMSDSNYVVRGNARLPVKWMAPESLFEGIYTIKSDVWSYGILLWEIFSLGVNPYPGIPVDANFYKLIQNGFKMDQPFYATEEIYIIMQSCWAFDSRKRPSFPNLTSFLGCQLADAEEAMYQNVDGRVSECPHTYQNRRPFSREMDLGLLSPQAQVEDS

[18] = biological target: Tyrosine-protein kinase Lck (Homo sapiens, UniProt P06239); assay type: functional;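 further: lck was assayed as one member of a kinase panel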
[19] = biological target: Vascular endothelial growth factor receptor 1 (Homo sapiens, UniProt P17948); assay type: functional;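 further: measured within a kinome-wide profiling panel, FLT1 as the panel member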
Sequence of Vascular endothelial growth factor receptor 1 (P17948 whole entry): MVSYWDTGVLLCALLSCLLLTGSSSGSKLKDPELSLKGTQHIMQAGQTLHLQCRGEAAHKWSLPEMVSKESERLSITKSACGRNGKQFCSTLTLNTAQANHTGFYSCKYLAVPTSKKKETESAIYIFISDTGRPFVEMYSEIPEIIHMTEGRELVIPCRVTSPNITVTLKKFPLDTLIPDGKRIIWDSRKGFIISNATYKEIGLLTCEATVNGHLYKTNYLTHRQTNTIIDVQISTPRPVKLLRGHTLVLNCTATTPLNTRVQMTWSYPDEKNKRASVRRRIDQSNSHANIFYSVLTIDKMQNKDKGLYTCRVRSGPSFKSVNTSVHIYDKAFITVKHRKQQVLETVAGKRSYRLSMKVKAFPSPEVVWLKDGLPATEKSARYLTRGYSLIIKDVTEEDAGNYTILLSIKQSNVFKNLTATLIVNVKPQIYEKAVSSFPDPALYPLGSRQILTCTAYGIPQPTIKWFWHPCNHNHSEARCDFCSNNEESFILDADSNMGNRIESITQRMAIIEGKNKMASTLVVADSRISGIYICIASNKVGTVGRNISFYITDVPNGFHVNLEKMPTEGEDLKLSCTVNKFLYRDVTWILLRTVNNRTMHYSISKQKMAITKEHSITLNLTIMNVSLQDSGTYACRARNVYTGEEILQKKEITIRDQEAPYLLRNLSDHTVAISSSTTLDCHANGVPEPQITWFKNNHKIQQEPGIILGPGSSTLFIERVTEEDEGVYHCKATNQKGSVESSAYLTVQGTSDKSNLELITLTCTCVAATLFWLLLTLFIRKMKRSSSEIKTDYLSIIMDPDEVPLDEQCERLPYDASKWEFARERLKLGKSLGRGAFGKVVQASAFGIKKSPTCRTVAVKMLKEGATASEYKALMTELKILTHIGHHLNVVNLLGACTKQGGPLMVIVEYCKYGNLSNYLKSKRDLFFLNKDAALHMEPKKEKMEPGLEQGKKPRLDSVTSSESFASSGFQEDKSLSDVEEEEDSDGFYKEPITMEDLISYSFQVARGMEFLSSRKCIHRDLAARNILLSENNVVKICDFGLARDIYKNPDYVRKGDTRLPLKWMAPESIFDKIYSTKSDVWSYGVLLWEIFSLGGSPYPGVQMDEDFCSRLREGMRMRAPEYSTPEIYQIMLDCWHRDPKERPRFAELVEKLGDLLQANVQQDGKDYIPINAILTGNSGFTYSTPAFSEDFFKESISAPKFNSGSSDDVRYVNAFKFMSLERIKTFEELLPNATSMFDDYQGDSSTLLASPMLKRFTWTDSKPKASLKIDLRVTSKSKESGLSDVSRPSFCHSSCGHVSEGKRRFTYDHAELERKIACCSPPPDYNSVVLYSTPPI

[20] = biological target: Proto-oncogene tyrosine-protein kinase Src (Homo sapiens, UniProt P12931); assay type: functional;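 further: SRC entry within a kinome-wide kinase profiling panel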
[21] = biological target: Tyrosine-protein kinase Blk (Homo sapiens, UniProt P51451); assay type: functional;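 further: obtained as one member of a kinome-wide kinase assay panel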
[22] = biological target: Vascular endothelial growth factor receptor 2 (Homo sapiens, UniProt P35968); assay type: functional
[23] = biological target: Tyrosine-protein kinase Lyn (Homo sapiens, UniProt P07948); assay type: functional;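 further: lyn as one member of a kinase panel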
[24] = biological target: Tyrosine-protein kinase Fyn (Homo sapiens, UniProt P06241); assay type: functional
[25] = biological target: Vascular endothelial growth factor receptor 3 (Homo sapiens, UniProt P35916); assay type: functional;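 further: value from a kinome-wide profiling panel, with FLT4 as the panel member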
[26] = biological target: Mast/stem cell growth factor receptor Kit (Homo sapiens, UniProt P10721); assay type: functional;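 further: KIT entry within a kinase panel assay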
[27] = biological target: Macrophage colony-stimulating factor 1 receptor (Homo sapiens, UniProt P07333); assay type: functional;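 further: value comes from the Navigating the Kinome screening panel, CSF1R member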
[28] = biological target: Tyrosine-protein kinase ABL1 (Homo sapiens, UniProt P00519); assay type: functional
Sequence of Tyrosine-protein kinase ABL1 (P00519 whole entry): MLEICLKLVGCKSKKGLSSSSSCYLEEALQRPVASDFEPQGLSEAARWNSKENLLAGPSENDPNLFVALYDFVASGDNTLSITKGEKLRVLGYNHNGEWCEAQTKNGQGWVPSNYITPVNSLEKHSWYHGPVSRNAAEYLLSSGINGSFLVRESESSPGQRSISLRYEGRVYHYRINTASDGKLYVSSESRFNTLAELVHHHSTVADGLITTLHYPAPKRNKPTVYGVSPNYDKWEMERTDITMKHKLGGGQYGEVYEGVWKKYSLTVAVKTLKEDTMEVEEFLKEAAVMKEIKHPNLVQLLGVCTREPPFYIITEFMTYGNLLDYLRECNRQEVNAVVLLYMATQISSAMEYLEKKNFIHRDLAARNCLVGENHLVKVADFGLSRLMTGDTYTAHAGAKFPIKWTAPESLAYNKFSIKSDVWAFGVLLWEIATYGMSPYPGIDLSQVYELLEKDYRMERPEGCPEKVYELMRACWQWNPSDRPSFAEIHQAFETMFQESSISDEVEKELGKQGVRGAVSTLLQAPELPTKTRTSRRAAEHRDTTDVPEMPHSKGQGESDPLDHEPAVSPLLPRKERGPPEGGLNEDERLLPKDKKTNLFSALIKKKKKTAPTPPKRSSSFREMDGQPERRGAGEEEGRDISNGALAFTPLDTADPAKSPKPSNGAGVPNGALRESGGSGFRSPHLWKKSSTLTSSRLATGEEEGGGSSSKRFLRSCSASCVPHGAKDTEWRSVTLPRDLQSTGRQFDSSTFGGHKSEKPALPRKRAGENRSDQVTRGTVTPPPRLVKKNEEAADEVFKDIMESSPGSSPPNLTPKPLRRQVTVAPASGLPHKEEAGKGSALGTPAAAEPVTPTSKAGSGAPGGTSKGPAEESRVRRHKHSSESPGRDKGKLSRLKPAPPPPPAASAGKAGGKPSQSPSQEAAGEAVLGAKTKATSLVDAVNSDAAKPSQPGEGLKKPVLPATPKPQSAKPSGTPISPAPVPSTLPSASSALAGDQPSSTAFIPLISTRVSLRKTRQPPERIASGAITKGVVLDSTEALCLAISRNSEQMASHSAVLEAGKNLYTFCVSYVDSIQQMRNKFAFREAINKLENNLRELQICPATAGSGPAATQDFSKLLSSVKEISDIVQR

[29] = biological target: Neuropeptides B/W receptor type 1 (Homo sapiens, UniProt P48145); assay: GPR7 antagonist potency, late-stage follow-up, cell-based, fluorescence, dose response, set 5 (AID 588566); assay type: functional
[30] = biological target: Melanin-concentrating hormone receptor 1 (Homo sapiens, UniProt Q99705); assay: Late-stage fluorescence-based counterscreen for antagonists of the G-protein coupled receptor 7 (GPR7): cell-based dose response assay to identify antagonists of the melanin-concentrating hormone receptor 1 (MCHR1) Set 5.; assay type: functional

IC50 [1]: > 20 µM (inactive)
IC50 (Prothrombin): 80.6 µM (active)
IC50 [2]: > 100 µM (inactive)
IC50 [3]: 65.6 µM (active)
SMILES: CC(=O)n1cc([C@H]2C=C(C(=O)Nc3ccccc3)O[C@@H](OCc3ccc(CO)cc3)C2)c2ccccc21

SMILES: CC(C)C(=O)N1CCC2(CC1)Oc1ccc(F)cc1C(=O)C21CC(c2ccc(Cl)cc2)=NO1 (configuration not stated)
EC50 [4]: 31.7 µM (active)
EC50 [5]: 12.6 µM (active)

SMILES: CCOc1ccc(-c2cn3c([n+]2-c2ccccc2)CCCCC3)cc1
EC50 [6]: 6.83 µM (active)
EC50 [7]: 15.1 µM (active)
AC50 (INS1 [8]): 0.998 µM (active)
IC50 [9]: > 80 µM (inactive)
EC50 [10]: 0.463 µM (active)

SMILES: CCOC(=O)c1c(CN2CCN(CCO)CC2)n(-c2ccccc2)c2cc(Br)c(O)cc12
IC50 (Vero): 20.2 µM (active)
AC50 [11]: 2 µM (active)
AC50 [12]: 0.61 µM (active)
AC50 [13]: > 52 µM (inactive)

SMILES: C[C@@H]1CN([C@H](C)CO)C(=O)c2cccc(NC(=O)Nc3cccc4ccccc34)c2O[C@H]1CN(C)S(=O)(=O)c1ccc(Cl)cc1
AC50 [14]: 112 µM (active)
AC50 (INS1 [15]): 48.5 µM (active)
AC50 (INS1 [16]): 187 µM (active)

Ki [17]: 0.00126 µM (active)
Ki [18]: 0.0316 µM (active)
Ki [19]: 0.000631 µM (active)
Ki [20]: 0.126 µM (active)
Ki [21]: 0.0158 µM (active)
Ki [22]: 0.001 µM (active)
Ki [23]: 0.0631 µM (active)
Ki [24]: 0.0794 µM (active)
Ki [25]: 0.0126 µM (active)
Ki [26]: 0.00158 µM (active)
Ki [27]: 0.00501 µM (active)
Ki [28]: 0.2 µM (active)
SMILES: COc1ccc(-c2ccc(NC(=O)Nc3ccc(OC(F)(F)F)cc3)cc2)c2c(N)noc12

IC50 [29]: 4.04 µM (active)
IC50 [30]: 7.64 µM (active)
SMILES: COc1ccc(Oc2c(F)cnn(-c3cccc(C)c3)c2=O)cc1
